Assay [1] deals with T1, 20S Human Erythrocyte Proteasome (HEP) (Homo sapiens, UniProt P20618+P28074).
T1 construct: 20S Human Erythrocyte Proteasome (HEP), purchased from Immatics Biotechnologies Inc; purchased Immatics Biotechnologies Inc., Tübingen, Germany; host or cells: human erythrocytes (natural source)
Description: Chymotrypsin-like activity of 20S Human Erythrocyte Proteasome (HEP), IC50 determination. Format: biochemical. As to conditions: assay of Example C, inhibition of HEP. On the procedure: Assay for Chymotrypsin-like Activity of 20S Human Erythrocyte Proteasome (HEP)
Proteasome chymotrypsin-like activity of compounds of the invention was assayed according to the following procedure.
In 96-well microtiter plates, 20S Human Erythrocyte Proteasome (HEP), purchased from Immatics Biotechnologies Inc., Tübingen, Germany was plated at 0.2 μg/mL (about 0.6 nM catalytic sites) in 0.04% SDS 20 mM Tris buffer. A fluorimetric substrate Suc-LLVY-AMC (succinyl-Leu-Leu-Val-Tyr-7-amido-4-methylcoumarin), purchased from Sigma Inc., St. Louis, Mo., USA was added to a final concentration of 100 μM from a stock solution of 10 mM in dimethylsulfoxide. Reaction volumes were 100 μl per well. […] Proteasome activity was determined under conditions in which substrate hydrolysis increased linearly with time and the change in fluorescence signal was proportional to the concentration of free AMC.
Determination of IC50 Values for HEP and α-Chymotrypsin Inhibitors
Inhibition of the chymotrypsin-like activity of HEP and of bovine α-chymotrypsin was determined by incubating the enzyme with various concentrations of putative inhibitors for 15 minutes at 37° C. (or room temperature for α-chymotrypsin) prior to the addition of substrate. Each experimental condition was evaluated in triplicate, and replicate experiments were performed for the inhibitors described herein.

Assay [2] deals with T2, proteasome in Molt-4 cells (human leukemia) (Homo sapiens, UniProt P20618+P28074).
T2 sequence (P28074 60-263): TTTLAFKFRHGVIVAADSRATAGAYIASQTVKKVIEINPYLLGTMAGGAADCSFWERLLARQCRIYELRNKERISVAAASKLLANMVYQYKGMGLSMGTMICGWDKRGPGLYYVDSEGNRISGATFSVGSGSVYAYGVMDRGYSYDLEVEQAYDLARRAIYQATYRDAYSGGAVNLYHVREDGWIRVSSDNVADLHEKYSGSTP
T2 sequence (P20618 29-241): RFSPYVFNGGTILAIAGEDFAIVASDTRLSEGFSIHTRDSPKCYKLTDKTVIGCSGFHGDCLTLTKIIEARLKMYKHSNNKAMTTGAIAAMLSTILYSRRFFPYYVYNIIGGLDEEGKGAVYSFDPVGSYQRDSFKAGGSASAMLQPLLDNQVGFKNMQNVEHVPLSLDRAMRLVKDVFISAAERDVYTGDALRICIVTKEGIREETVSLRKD
Type of assay: cell-based. The settings on record: assay of Example E, inhibition of MOLT4; read-out: MOLT4 (EC50). On the procedure:
Cellular Assay for Chymotrypsin-like activity of Proteasome in Molt-4 Cell Line
The chymotrypsin-like activity of proteasome in Molt-4 cells (human leukemia) was assayed according to the following procedure. A brief description of the method was published previously (Harding et al., J. Immunol., 1995, 155, 1767).
Molt-4 cells were washed and resuspended in HEPES-buffered Saline (5.4 mM KCl, 120 mM NaCl, 25 mM Glucose, 1.5 mM MgSO4, 1 mM Na pyruvate, 20 mM Hepes) and plated in 96-well microtiter white plates to a final concentration of 6×10^6 cells/mL. Then various 5× proteasome inhibitor concentrations (or diluted DMSO for controls), prepared from 250×DMSO solutions by diluting 50-fold using HEPES-buffered saline, were added to the plate to a final 1× concentration. After 15 minutes incubation at 37° C., a fluorimetric cell permeable substrate (MeOSuc-FLF-AFC) (methoxysuccinyl-Phe-Leu-Phe-7-amido-4-trifluoromethylcoumarin) purchased from Enzyme Systems Products, catalogue number AFC-88, was added to each well at a final concentration of 25 μM from a stock solution of 20 mM in DMSO. Reaction volumes were 100 μl per well.
The concentration of free AFC was monitored every 1.5 min for 30 min ([…]) on a Polastar Optima, BMG Labtechnologies microplate reader, using an excitation wavelength of 390 nm and emission wavelength of 520 nm. Proteasome activity was determined under conditions in which substrate hydrolysis increased linearly with time and the change in fluorescent signal was proportional to the concentration of free AFC.
Determination of EC50 Values for Proteasome Inhibitors in MOLT-4 Cell Line
Inhibition of chymotrypsin-like activity of proteasome in Molt-4 cells was determined by incubating cells with various concentrations of putative inhibitors for 15 minutes at 37° C. prior to the addition of substrate. Each experimental condition was evaluated in triplicate, and replicate experiments were performed for the inhibitors described herein.

As usually defined, the IC50 is the concentration that inhibits the measured activity by half. Low values mean higher potency, high ones lower potency. The term EC50 denotes the midpoint of the concentration-response curve. As for `CC(C)C[C@H](NC(=O)[C@H](CCCNC(=N)N[N+](=O)[O-])NC(=O)C1CCCCN1C(=O)OC(C)(C)C)B(O)O` (mixture of isomers) [E.2.81, Boronic acid, [(1R)-1-[[(2S)-5-[[imino(nitroamino)methyl]amino]-2-[[(2RS)-1-[(1,1-dimethylethoxy)carbonyl]piperidine-2-carbonyl]amino]-1-oxopentyl]amino]-3-methylbutyl]], in assay [1], the IC50 was less than 100 nM. In addition, in assay [2], the concentration for a half-maximal effect (EC50) was in the range of 2000 to 10000 nM.
For the molecule `CC(C)C[C@H](NC(=O)[C@H](CCCNC(=N)N[N+](=O)[O-])NC(=O)c1ccc2ccccc2c1)B1O[C@@H]2C[C@@H]3C[C@@H](C3(C)C)[C@]2(C)O1` [D.1.1, Naphthalen-2-carboxamide,N-[(1S)-1-[[[(1R)-1-[(3aS,4S,6S,7aR)-hexahydro-3a,5,5-trimethyl-4,6-methano-1,3,2-benzodioxaborol-2-yl]-3-methylbutyl]amino]carbonyl]-4-[[imino(nitroamino)methyl]amino]butyl]], the IC50 in assay [1] is less than 10 nM. The EC50 in assay [2] is less than 200 nM.
Turning to `CC(C)C[C@H](NC(=O)[C@H](CCCNC(=N)N[N+](=O)[O-])NC(=O)c1cnccn1)B1O[C@@H]2C[C@@H]3C[C@@H](C3(C)C)[C@]2(C)O1` [D.1.2], the IC50 in assay [1] was less than 100 nM. The EC50 in assay [2] was in the range of 200 to 2000 nM.
In assay [1], `CC(C)C[C@H](NC(=O)[C@H](CCCNC(=N)N[N+](=O)[O-])NC(=O)CCN1C(=O)c2ccccc2C1=O)B1O[C@@H]2C[C@@H]3C[C@@H](C3(C)C)[C@]2(C)O1` [D.1.3, 3-(1,3-Dioxo-1,3-dihydro-isoindol-2-yl)-propanamide,N-[(1S)-1-[[[(1R)-1-[(3aS,4S,6S,7aR)-hexahydro-3a,5,5-trimethyl-4,6-methano-1,3,2-benzodioxaborol-2-yl]-3-methylbutyl]amino]carbonyl]-4-[[imino(nitroamino)methyl]amino]butyl]] came in with an IC50 of less than 10 nM. Also, the EC50 in assay [2] lay within 200 to 2000 nM.
In turn, `CCCCc1ccc(C(=O)N[C@@H](CCCNC(=N)N[N+](=O)[O-])C(=O)N[C@@H](CC(C)C)B2O[C@@H]3C[C@@H]4C[C@@H](C4(C)C)[C@]3(C)O2)cc1` [D.1.4, 4-Butylbenzamide,N-[(1S)-1-[[[(1R)-1-[(3aS,4S,6S,7aR)-hexahydro-3a,5,5-trimethyl-4,6-methano-1,3,2-benzodioxaborol-2-yl]-3-methylbutyl]amino]carbonyl]-4-[[imino(nitroamino)methyl]amino]butyl]] had a half-maximal inhibitory concentration (IC50) in assay [1] of less than 10 nM. For the same molecule, in assay [2], the 50% effective concentration (EC50) is less than 200 nM.
Molecule `CC(C)C[C@H](NC(=O)[C@H](CCCNC(=N)N[N+](=O)[O-])NC(=O)c1cccc(NC(=O)OC(C)(C)C)c1)B1O[C@@H]2C[C@@H]3C[C@@H](C3(C)C)[C@]2(C)O1` [D.1.5, 3-[(1,1-dimethylethoxy)carbonylamino]benzamide, N-[(1S)-1-[[[(1R)-1-[(3aS,4S,6S,7aR)-hexahydro-3a,5,5-trimethyl-4,6-methano-1,3,2-benzodioxaborol-2-yl]-3-methylbutyl]amino]carbonyl]-4-[[imino(nitroamino)methyl]amino]butyl]-] came in with an IC50 in assay [1] of less than 10 nM. In assay [2], the EC50 is 200 to 2000 nM.
As to `COCCOCC(=O)N[C@@H](CCCNC(=N)N[N+](=O)[O-])C(=O)N[C@@H](CC(C)C)B1O[C@@H]2C[C@@H]3C[C@@H](C3(C)C)[C@]2(C)O1` [D.1.6], in assay [1], the IC50 is less than 100 nM. Also, the EC50 in assay [2] lay in the range of 200 to 2000 nM.
In the case of `COCCOCCOCC(=O)N[C@@H](CCCNC(=N)N[N+](=O)[O-])C(=O)N[C@@H](CC(C)C)B1O[C@@H]2C[C@@H]3C[C@@H](C3(C)C)[C@]2(C)O1` [D.1.7], the IC50 in assay [1] is less than 100 nM. For the same molecule, in assay [2], the EC50 fell in the range of 2000 to 10000 nM.
In turn, `CCOC(=O)/C=C/C(=O)N[C@@H](CCCNC(=N)N[N+](=O)[O-])C(=O)N[C@@H](CC(C)C)B1O[C@@H]2C[C@@H]3C[C@@H](C3(C)C)[C@]2(C)O1` [D.1.8, (E)-3-(Ethoxycarbonyl)acrylamide,N-[(1S)-1-[[[(1R)-1-[(3aS,4S,6S,7aR)-hexahydro-3a,5,5-trimethyl-4,6-methano-1,3,2-benzodioxaborol-2-yl]-3-methylbutyl]amino]carbonyl]-4-[[imino(nitroamino)methyl]amino]butyl]] had an IC50 in assay [1] of less than 10 nM. In assay [2], the EC50 is 200 to 2000 nM.
`CC(C)C[C@H](NC(=O)[C@H](CCCNC(=N)N[N+](=O)[O-])NC(=O)CCCC1CCN(C)CC1)B1O[C@@H]2C[C@@H]3C[C@@H](C3(C)C)[C@]2(C)O1` [D.1.10, 4-(1-Methyl-piperidin-4-yl)-butanamide,N-[(1S)-1-[[[(1R)-1-[(3aS,4S,6S,7aR)-hexahydro-3a,5,5-trimethyl-4,6-methano-1,3,2-benzodioxaborol-2-yl]-3-methylbutyl]amino]carbonyl]-4-[[imino(nitroamino)methyl]amino]butyl]] showed an IC50 in assay [1] of less than 100 nM. Moreover, the EC50 in assay [2] is 200 to 2000 nM.
In assay [1], `CC(=O)NCC(=O)N[C@@H](CCCNC(=N)N[N+](=O)[O-])C(=O)N[C@@H](CC(C)C)B1O[C@@H]2C[C@@H]3C[C@@H](C3(C)C)[C@]2(C)O1` [D.1.11, 2-Acetylamino-acetamide,N-[(1S)-1-[[[(1R)-1-[(3aS,4S,6S,7aR)-hexahydro-3a,5,5-trimethyl-4,6-methano-1,3,2-benzodioxaborol-2-yl]-3-methylbutyl]amino]carbonyl]-4-[[imino(nitroamino)methyl]amino]butyl]] returned an IC50 of less than 100 nM. Also, the EC50 in assay [2] was more than 10000 nM.
The molecule `CC(C)C[C@H](NC(=O)[C@H](CCCNC(=N)N[N+](=O)[O-])NC(=O)CCCCCNS(=O)(=O)c1ccccc1)B1O[C@@H]2C[C@@H]3C[C@@H](C3(C)C)[C@]2(C)O1` [D.1.12, 6-Benzenesulfonylaminohexanamide,N-[(1S)-1-[[[(1R)-1-[(3aS,4S,6S,7aR)-hexahydro-3a,5,5-trimethyl-4,6-methano-1,3,2-benzodioxaborol-2-yl]-3-methylbutyl]amino]carbonyl]-4-[[imino(nitroamino)methyl]amino]butyl]] had an IC50 in assay [1] of less than 10 nM. In addition, in assay [2], the EC50 was in the range of 200 to 2000 nM.
Molecule `CCS(=O)(=O)NCCCCCCCC(=O)N[C@@H](CCCNC(=N)N[N+](=O)[O-])C(=O)N[C@@H](CC(C)C)B1O[C@@H]2C[C@@H]3C[C@@H](C3(C)C)[C@]2(C)O1` [D.1.13] yielded an IC50 in assay [1] of less than 10 nM. Also, in assay [2], the EC50 was 2000 to 10000 nM.
As for `CCS(=O)(=O)NCCCCCC(=O)N[C@@H](CCCNC(=N)N[N+](=O)[O-])C(=O)N[C@@H](CC(C)C)B1O[C@@H]2C[C@@H]3C[C@@H](C3(C)C)[C@]2(C)O1` [D.1.14, 6-(Ethanesulfonylamino)hexanamide,N-[(1S)-1-[[[(1R)-1-[(3aS,4S,6S,7aR)-hexahydro-3a,5,5-trimethyl-4,6-methano-1,3,2-benzodioxaborol-2-yl]-3-methylbutyl]amino]carbonyl]-4-[[imino(nitroamino)methyl]amino]butyl]], the IC50 in assay [1] is less than 100 nM. Besides, the EC50 in assay [2] is more than 10000 nM.

These data come from patent publication US8546608B2, “Proteasome inhibitors and methods of using the same” (Cephalon, Inc., priority 2003, dated 2013).
